What was measured:
Type in all cases: biochemical
MMP-9 = target: T1, MMP-9 (Homo sapiens, UniProt P14780); test: Automated MMP Profiling Assay, MMP-9 fluorogenic; conditions: for IC50: 96-well automated, P218
T1 construct: from tissue; host or cells: human polymorphonuclear leukocytes (PMN) from whole blood (New York Blood Center), PMA-stimulated supernatant
Method: Briefly, polymorphonuclear leukocytes (PMN) preparations were isolated as described above from 3 or more units of freshly drawn whole blood obtained from the New York Blood Center (New York, N.Y.). Cells were resuspended in phosphate buffered saline (PBS) containing 100 ng/ml phorbol myristate acetate (PMA) in the presence of 50 mM diisopropylfluorophospate (DFP), 1 μg/ml leupeptin and aprotinin, and 1 mg/ml catalase for 1 hr at 37° C. Supernatants were collected by centrifugation (300×g) and the samples were frozen at -70° C. All chromatographic methods were performed at 4° C. Thawed samples were concentrated 5-fold using an Amicon chamber equipped with a YM-10 membrane. The concentrate was pressure dialyzed against 0.02M Tris-HCl, 0.1M NaCl, 1 mM CaCl2, 1 μM ZnCl2, 0.001% Brij-35, 0.02% sodium azide (NaN3), pH 7.5 and applied to DEAE ion exchange chromatography resin which was previously equilibrated with the same buffer at a flow rate of 0.4 ml/min. The column was extensively washed with the same buffer and gelatinase was eluted as 4 ml fractions from the column with 0.02M Tris-HCl, 0.5M NaCl, 1 mM CaCl2, 1 μM ZnCl2, 0.001% Brij-35, 0.02% NaN3, pH 7.5. Gelatinase containing fractions were observed by gelatin zymography (see below), loaded onto a gelatin agarose affinity resin and washed with the same buffer. Gelatinase activity was eluted at a flow rate of 1 ml/min from the column as 1 ml fractions with 0.02M Tris-HCl, 1M NaCl, 1 mM CaCl2, 1 μM ZnCl2, 0.001% Brij-35, 0.02% NaN3, pH 7.5 containing 10% dimethyl sulfoxide (DMSO). The fractions containing gelatinase activity were pooled and dialyzed against 0.005M Tris-HCl, 5 mM NaCl, 0.5 mM CaCl2, 0.1 μM ZnCl2, 0.001% Brij-35, pH 7.4. The protein content associated with material was determined with a micro-BCA assay (Pierce, Rockford, Ill.), lyophilized and reconstituted to a desired working concentration (100 μg/ml).
This assay was run with a protocol analogous to that reported for MMP-3 inhibition using the synthetic peptide P218 and each of the three enzymes and measuring quenched fluorescence. This assay with each invention compound was run with the three enzymes MMP-3, MMP-9 and MMP-2 in parallel as adapted for a 96-well microtitre plate using a Hamilton A® workstation.

MMP-3 = target: T2, MMP-3 (Homo sapiens, UniProt P08254); test: Automated MMP Profiling Assay, MMP-3 fluorogenic; conditions: for IC50: 96-well automated, P218
T2 construct: Truncated Prostromelysin-257 was expressed in a soluble form in E.coli; made in house; host or cells: E. coli
From the text: This assay with each invention compound was run with the three enzymes MMP-3, MMP-9 and MMP-2 in parallel as adapted for a 96-well microtitre plate using a Hamilton A® workstation.

MMP-2 = target: T3, MMP-2 (Homo sapiens, UniProt P08253); test: Automated MMP Profiling Assay, MMP-2 fluorogenic; conditions: 96-well automated, P218; read-out: MMP-2 Fluorogenic IC50 (profiling)
T3 sequence (P08253 110-660): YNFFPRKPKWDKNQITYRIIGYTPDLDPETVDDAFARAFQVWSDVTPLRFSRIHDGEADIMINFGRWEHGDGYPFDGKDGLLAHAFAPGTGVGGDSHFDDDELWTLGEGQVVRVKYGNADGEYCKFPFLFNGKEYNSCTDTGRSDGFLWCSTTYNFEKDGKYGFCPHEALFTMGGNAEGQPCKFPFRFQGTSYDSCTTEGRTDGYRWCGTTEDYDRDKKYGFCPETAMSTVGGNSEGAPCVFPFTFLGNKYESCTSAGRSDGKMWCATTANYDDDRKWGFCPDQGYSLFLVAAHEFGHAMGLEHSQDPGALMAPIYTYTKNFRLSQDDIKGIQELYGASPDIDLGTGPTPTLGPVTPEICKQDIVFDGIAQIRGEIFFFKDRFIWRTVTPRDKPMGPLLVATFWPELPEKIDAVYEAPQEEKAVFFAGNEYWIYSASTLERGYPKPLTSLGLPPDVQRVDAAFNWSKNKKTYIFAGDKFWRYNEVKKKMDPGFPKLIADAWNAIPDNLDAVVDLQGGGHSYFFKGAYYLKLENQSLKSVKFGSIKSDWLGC

T2 sequence (P08254 100-274 limits assumed): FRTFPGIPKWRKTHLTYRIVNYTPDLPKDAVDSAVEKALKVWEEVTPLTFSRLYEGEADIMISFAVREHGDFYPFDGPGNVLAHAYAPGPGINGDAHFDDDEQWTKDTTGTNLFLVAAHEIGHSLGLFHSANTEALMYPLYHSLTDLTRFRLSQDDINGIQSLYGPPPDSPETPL
T1 sequence (P14780 107-707 limits assumed): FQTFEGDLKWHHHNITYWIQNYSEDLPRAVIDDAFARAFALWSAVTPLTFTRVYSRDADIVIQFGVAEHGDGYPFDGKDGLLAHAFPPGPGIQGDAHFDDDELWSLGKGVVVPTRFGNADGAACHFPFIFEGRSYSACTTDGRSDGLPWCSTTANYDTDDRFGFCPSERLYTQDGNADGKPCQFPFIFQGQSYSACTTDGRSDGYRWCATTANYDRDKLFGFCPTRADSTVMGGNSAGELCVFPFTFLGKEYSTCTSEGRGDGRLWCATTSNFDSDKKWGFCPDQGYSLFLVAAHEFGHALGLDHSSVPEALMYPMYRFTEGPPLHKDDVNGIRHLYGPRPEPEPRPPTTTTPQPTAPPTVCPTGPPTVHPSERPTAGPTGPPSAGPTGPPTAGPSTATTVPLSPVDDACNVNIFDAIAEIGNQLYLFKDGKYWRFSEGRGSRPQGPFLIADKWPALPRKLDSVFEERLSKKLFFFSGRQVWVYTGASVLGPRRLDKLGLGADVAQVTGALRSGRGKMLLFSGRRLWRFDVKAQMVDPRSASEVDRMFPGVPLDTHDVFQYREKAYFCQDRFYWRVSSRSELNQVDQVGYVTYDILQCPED

Row | SMILES | IC50 (MMP-9) | IC50 (MMP-3) | IC50 (MMP-2) | inhibition at 5 µM (MMP-9) | inhibition at 5 µM (MMP-3)
1 | COc1ccc(C(=O)OC[C@@H]2CC[C@H](C(=O)c3ccc(-c4ccc(Cl)cc4)cc3)[C@H]2C(=O)O)cc1 (relative stereo) [Example 383, Benzoic acid, 4-methoxy-, [2-carboxy-3-[(4'-chloro[1,1'-biphenyl]-4-yl)carbonyl]cyclopentyl]methyl ester, (1α,2β,3α)-] | 53 nM | 58 nM | 110 nM | – | –
2 | O=C(O)[C@H]1[C@H](CSc2nc3ccccc3o2)CC[C@@H]1C(=O)c1ccc(-c2ccc(Cl)cc2)cc1 (relative stereo) [Example 384, Cyclopentanecarboxylic acid, 2-[(2-benzoxazolylthio)methyl]-5-[(4'-chloro[1,1'-biphenyl]-4-yl)carbonyl]-, (1α,2β,5β)-] | 167 nM | 129 nM | 78 nM | – | –
3 | O=C(O)[C@H]1[C@H](CN2C(=O)c3cccc([N+](=O)[O-])c3C2=O)CC[C@@H]1C(=O)c1ccc(-c2ccc(Cl)cc2)cc1 (relative stereo) [Example 385, Cyclopentanecarboxylic acid, 2-[(4'-chloro[1,1'-biphenyl]-4-yl)carbonyl]-5-[(1,3-dihydro-4-nitro-1,3-dioxo-2H-isoindol-2-yl)methyl]-, (1α,2β,5β)-] | 1.12 nM | 4.22 nM | 4.26 nM | – | –
4 | O=C(O)[C@H]1[C@H](CN2C(=O)c3ccc([N+](=O)[O-])cc3C2=O)CC[C@@H]1C(=O)c1ccc(-c2ccc(Cl)cc2)cc1 (relative stereo) [Example 386, Cyclopentanecarboxylic acid, 2-[(4'-chloro[1,1'-biphenyl]-4-yl)carbonyl]-5-[(1,3-dihydro-5-nitro-1,3-dioxo-2H-isoindol-2-yl)methyl]-, (1α,2β,5β)-] | 0.97 nM | 8.34 nM | 11.7 nM | – | –
5 | O=C(O)[C@H]1[C@H](CN2C(=O)c3cc4ccccc4cc3C2=O)CC[C@@H]1C(=O)c1ccc(-c2ccc(Cl)cc2)cc1 (relative stereo) [Example 387, Cyclopentanecarboxylic acid, 2-[(4'-chloro[1,1'-biphenyl]-4-yl)carbonyl]-5-[(1,3-dihydro-1,3-dioxo-2H-benz[.function.]isoindol-2-yl)methyl]-, (1α,2β,5β)-] | 2 nM | 9.4 nM | 4.9 nM | – | –
6 | O=C(O)[C@H]1[C@H](COc2ccc(Cl)cc2)CC[C@@H]1C(=O)c1ccc(-c2ccc(Cl)cc2)cc1 (relative stereo) [Example 388, Cyclopentanecarboxylic acid, 2-[(4'-chloro[1,1'-biphenyl]-4-yl)carbonyl]-5-[(4-chlorophenoxy)methyl]-, (1α,2β,5β)-] | 467 nM | 105 nM | 30 nM | – | –
7 | O=C(O)[C@H]1[C@H](CON2C(=O)c3ccccc3C2=O)CC[C@@H]1C(=O)c1ccc(-c2ccc(Cl)cc2)cc1 (relative stereo) [Example 389, Cyclopentanecarboxylic acid, 2-[(4'-chloro[1,1'-biphenyl]-4-yl)carbonyl]-5-[[(1,3-dihydro-1,3-dioxo-2H-isoindol-2-yl)oxy]methyl]-, (1α,2β,5β)-] | 23 nM | 15 nM | 6.3 nM | – | –
8 | O=C(O)[C@H]1[C@H](CN2C(=O)c3cc(Cl)c([N+](=O)[O-])cc3C2=O)CC[C@@H]1C(=O)c1ccc(-c2ccc(Cl)cc2)cc1 (relative stereo) [Example 390, Cyclopentanecarboxylic acid, 2-[(4'-chloro[1,1'-biphenyl]-4-yl)carbonyl]-5-[(5-chloro-1,3-dihydro-6-nitro-1,3-dioxo-2H-isoindol-2-yl)methyl]-, (1α,2β,5β)-] | 1.2 nM | 10 nM | 15 nM | – | –
9 | O=C(O)[C@H]1[C@H](CN2C(=O)c3cc(Cl)c(Cl)cc3C2=O)CC[C@@H]1C(=O)c1ccc(-c2ccc(Cl)cc2)cc1 (relative stereo) [Example 391, Cyclopentanecarboxylic acid, 2-[(4'-chloro[1,1'-biphenyl]-4-yl)carbonyl]-5-[(5,6-dichloro-1,3-dihydro-1,3-dioxo-2H-isoindol-2-yl)methyl]-, (1α,2β,5β)-] | 4.2 nM | 19 nM | 14 nM | – | –
10 | CC(=O)O[C@H]1C[C@@H](C(=O)c2ccc(-c3ccc(Cl)cc3)cc2)[C@H]1C(=O)O (relative stereo) [Example 393, Cyclobutanecarboxylic acid, 2-(acetyloxy)-4-[(4'-chloro[1,1'-biphenyl]-4-yl)carbonyl]-, (1α,2α,4α)-] | – | – | 2000 nM | 38% | 18%
11 | CC(=O)O[C@@H]1C[C@@H](C(=O)c2ccc(-c3ccc(Cl)cc3)cc2)[C@H]1C(=O)O (relative stereo) [Example 394, Cyclobutanecarboxylic acid, 2-(acetyloxy)-4-[(4'-chloro[1,1'-biphenyl]-4-yl)carbonyl]-, (1α,2β,4α)-] | – | – | 2000 nM | 15% | 26%
12 | CC(=O)O[C@H]1C[C@H](C(=O)c2ccc(-c3ccc(Cl)cc3)cc2)[C@H]1C(=O)O (relative stereo) [Example 395, Cyclobutanecarboxylic acid, 2-(acetyloxy)-4-[(4'-chloro[1,1'-biphenyl]-4-yl)carbonyl]-, (1α,2α,4β)-] | – | 2200 nM | 560 nM | 44% | –
13 | CC(=O)O[C@@H]1C[C@H](C(=O)c2ccc(-c3ccc(Cl)cc3)cc2)[C@H]1C(=O)O (relative stereo) [Example 396, Cyclobutanecarboxylic acid, 2-(acetyloxy)-4-[(4'-chloro[1,1'-biphenyl]-4-yl)carbonyl]-, (1α,2β,4β)-] | 2290 nM | 779 nM | 362 nM | – | –
14 | CC(=O)OC[C@@H]1C[C@@H](C(=O)c2ccc(-c3ccc(Cl)cc3)cc2)[C@H]1C(=O)O (relative stereo) [Example 397, Cyclobutanecarboxylic acid, 2-[(acetyloxy)methyl]-4-[(4'-chloro[1,1'-biphenyl]-4-yl)carbonyl]-, (1α,2β,4α)-] | – | 3200 nM | 750 nM | 40% | –
15 | O=C(O)[C@@H]1[C@@H](CN2C(=O)c3ccccc3C2=O)OC[C@H]1C(=O)c1ccc(-c2ccc(Cl)cc2)cc1 (relative stereo) [Example 403, 3-Furancarboxylic acid, 4-[(4'-chloro[1,1'-biphenyl]-4-yl)carbonyl]-2-[(1,3-dihydro-1,3-dioxo-2H-isoindol-2-yl)methyl]tetrahydro-, (2α,3β,4α)-] | 5.7 nM | 17 nM | 6.4 nM | – | –
16 | O=C(O)[C@H]1[C@@H](SCc2ccccc2)CC[C@@H]1C(=O)c1ccc(-c2ccc(Cl)cc2)cc1 (relative stereo) [Example 440, Cyclopentanecarboxylic acid, 2-[(4'-chloro[1,1'-biphenyl]-4-yl)carbonyl]-5-[(phneylmethyl)thio]-, (1α,2β,5α)-] | 380 nM | 58 nM | 43 nM | – | –
17 | O=C(O)[C@@H]1[C@@H](C(=O)c2ccc(-c3ccc(Cl)cc3)cc2)CC[C@H]1SCc1ccccc1 (relative stereo) [Example 441, Cyclopentanecarboxylic acid, 2-[(4'-chloro[1,1'-biphenyl]-4-yl)carbonyl]-5-[(phenylmethyl)thio]-, (1α,2β,5β)-] | 149 nM | 38 nM | 27 nM | – | –
